Drawing on ChEMBL document CHEMBL1132535, “Design, synthesis, and evaluations of substituted 3-[(3- or 4-carboxyethylpyrrol-2-yl)methylidenyl]indolin-2-ones as inhibitors of VEGF, FGF, and PDGF receptor tyrosine kinases” (J Med Chem, 1999), this text covers IC50 for 22 compounds.

The target of experiment [1] is Vascular endothelial growth factor receptor 2 (Homo sapiens, UniProt P35968).
The target in experiment [2] is Epidermal growth factor receptor (Homo sapiens, UniProt P00533).
For experiment [3], the target named is Fibroblast growth factor receptor 1 (Homo sapiens, UniProt P11362). The experiment can be described thus: Inhibitory activity against Fibroblast growth factor receptor 1.
Chain of Fibroblast growth factor receptor 1 (P11362 whole entry): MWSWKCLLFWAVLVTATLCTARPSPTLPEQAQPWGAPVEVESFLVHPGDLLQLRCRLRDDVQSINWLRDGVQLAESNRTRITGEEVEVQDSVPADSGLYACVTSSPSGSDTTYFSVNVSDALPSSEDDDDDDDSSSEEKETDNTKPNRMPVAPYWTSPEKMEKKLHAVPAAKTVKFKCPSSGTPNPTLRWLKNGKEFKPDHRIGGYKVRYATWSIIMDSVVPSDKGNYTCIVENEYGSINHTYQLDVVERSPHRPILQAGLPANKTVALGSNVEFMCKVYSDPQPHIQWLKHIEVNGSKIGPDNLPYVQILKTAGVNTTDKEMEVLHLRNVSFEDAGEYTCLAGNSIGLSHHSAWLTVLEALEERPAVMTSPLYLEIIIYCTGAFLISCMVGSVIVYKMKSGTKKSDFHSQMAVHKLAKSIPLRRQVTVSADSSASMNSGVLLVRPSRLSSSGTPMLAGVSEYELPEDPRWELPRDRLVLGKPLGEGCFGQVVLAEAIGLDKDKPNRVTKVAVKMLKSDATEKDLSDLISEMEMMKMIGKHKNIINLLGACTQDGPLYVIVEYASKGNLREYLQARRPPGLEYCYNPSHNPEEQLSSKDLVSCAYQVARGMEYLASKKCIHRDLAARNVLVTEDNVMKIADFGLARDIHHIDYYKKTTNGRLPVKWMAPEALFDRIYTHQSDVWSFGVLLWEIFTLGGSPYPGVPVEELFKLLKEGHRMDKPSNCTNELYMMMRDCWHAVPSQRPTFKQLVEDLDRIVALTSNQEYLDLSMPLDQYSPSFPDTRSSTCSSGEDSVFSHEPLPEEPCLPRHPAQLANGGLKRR
Experiment [4] deals with Platelet-derived growth factor receptor beta (Homo sapiens, UniProt P09619).
Chain of Platelet-derived growth factor receptor beta (P09619 whole entry): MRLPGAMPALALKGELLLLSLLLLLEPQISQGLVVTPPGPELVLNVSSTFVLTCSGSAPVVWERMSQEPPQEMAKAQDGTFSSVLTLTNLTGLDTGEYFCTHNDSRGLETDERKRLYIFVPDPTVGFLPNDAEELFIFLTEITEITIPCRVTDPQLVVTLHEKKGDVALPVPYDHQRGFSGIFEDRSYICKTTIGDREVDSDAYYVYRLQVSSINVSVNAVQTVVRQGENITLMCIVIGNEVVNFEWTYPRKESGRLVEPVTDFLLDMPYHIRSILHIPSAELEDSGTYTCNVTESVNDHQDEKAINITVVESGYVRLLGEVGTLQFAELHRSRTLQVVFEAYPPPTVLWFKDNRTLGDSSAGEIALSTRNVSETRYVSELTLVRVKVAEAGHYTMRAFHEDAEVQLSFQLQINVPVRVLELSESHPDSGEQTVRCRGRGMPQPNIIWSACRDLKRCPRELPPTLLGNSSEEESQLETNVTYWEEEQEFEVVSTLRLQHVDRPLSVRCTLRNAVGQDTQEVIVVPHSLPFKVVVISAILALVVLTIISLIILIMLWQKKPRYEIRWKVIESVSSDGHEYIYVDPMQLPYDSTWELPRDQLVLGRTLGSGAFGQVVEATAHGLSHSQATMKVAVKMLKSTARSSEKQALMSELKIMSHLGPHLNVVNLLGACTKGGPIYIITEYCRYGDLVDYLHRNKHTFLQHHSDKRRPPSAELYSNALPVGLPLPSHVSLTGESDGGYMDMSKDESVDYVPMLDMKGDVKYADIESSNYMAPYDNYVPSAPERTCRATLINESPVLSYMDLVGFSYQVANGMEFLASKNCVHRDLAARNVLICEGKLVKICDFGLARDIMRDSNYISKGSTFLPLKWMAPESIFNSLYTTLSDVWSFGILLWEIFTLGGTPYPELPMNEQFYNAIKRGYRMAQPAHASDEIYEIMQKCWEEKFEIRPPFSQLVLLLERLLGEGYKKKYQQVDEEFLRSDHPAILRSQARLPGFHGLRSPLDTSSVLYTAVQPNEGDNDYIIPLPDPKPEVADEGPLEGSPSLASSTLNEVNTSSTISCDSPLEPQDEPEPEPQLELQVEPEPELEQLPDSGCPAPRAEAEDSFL

Chain of Vascular endothelial growth factor receptor 2 (P35968 whole entry): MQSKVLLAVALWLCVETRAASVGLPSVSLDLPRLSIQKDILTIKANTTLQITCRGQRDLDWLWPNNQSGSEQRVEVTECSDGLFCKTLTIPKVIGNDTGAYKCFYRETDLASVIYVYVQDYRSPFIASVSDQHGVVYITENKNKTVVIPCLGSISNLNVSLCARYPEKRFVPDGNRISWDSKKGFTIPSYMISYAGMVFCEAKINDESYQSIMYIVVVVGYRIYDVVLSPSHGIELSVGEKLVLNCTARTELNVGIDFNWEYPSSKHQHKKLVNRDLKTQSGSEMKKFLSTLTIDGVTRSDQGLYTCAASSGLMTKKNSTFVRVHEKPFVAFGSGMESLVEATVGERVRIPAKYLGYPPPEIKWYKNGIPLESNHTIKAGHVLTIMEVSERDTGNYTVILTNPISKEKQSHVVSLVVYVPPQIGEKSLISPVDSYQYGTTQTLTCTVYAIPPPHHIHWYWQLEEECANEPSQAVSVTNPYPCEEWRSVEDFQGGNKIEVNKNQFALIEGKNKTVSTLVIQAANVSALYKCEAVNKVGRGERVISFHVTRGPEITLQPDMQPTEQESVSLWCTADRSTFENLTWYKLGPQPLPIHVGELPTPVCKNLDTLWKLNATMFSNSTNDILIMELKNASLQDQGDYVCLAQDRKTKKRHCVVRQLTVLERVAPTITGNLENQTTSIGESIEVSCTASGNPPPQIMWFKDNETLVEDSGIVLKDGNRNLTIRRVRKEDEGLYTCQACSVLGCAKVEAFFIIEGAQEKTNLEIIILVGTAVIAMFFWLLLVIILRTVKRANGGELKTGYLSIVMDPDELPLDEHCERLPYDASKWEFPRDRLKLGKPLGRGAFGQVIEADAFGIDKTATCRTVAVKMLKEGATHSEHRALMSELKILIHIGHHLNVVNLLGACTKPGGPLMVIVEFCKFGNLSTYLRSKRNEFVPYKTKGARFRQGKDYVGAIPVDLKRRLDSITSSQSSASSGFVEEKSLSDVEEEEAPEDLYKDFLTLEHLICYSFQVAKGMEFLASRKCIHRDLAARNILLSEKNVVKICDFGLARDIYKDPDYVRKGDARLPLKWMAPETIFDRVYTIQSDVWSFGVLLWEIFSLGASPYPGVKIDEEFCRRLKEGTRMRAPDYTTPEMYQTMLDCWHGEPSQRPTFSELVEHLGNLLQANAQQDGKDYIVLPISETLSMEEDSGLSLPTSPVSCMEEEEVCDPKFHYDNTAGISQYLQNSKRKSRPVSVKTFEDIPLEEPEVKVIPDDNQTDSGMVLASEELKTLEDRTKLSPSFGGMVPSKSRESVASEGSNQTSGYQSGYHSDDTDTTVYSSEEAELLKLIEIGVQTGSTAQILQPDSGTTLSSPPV
Chain of Epidermal growth factor receptor (P00533 whole entry): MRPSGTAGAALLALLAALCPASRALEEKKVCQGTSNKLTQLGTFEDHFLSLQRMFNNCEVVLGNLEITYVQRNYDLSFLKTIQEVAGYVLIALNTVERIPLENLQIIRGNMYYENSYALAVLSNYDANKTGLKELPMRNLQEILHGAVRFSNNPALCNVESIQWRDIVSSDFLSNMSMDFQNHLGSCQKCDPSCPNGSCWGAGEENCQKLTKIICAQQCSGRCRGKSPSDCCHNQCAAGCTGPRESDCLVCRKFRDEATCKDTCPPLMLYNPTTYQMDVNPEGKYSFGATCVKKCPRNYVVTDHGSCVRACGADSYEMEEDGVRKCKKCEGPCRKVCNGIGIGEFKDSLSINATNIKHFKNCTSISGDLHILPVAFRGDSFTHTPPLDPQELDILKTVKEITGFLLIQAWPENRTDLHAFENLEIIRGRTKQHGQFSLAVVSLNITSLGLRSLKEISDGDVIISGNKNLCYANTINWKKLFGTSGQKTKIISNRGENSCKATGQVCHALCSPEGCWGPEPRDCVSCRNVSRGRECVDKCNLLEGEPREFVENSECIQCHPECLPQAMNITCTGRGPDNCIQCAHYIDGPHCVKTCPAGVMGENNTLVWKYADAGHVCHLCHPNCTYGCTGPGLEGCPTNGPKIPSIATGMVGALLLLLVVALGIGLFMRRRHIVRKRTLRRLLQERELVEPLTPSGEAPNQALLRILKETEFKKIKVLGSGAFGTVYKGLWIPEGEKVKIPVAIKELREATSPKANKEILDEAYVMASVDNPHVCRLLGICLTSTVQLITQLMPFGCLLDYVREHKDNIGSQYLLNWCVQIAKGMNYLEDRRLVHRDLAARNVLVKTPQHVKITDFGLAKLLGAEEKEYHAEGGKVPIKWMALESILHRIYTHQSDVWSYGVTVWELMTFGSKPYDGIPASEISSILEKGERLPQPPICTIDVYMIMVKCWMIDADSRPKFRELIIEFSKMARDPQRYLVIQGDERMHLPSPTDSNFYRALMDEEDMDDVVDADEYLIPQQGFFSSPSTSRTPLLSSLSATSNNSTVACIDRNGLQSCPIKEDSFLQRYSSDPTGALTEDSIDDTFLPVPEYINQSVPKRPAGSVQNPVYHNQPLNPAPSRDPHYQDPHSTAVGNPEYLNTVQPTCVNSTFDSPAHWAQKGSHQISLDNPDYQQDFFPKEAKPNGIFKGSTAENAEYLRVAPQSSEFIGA

One may read the IC50 as the midpoint of a concentration-inhibition curve. Low values mean higher potency, high ones lower potency. For the compound `COc1ccccc1-c1ccc2c(c1)NC(=O)/C2=C\c1[nH]c(C)c(CCC(=O)O)c1C`, the concentration for half-maximal inhibition (IC50) in experiment [1] is 4370 nM; in experiment [2], more than 100000 nM; in experiment [3] it was 7330 nM; in experiment [4], 2220 nM.
In the same order, the values of `Cc1c(CCC(=O)O)c[nH]c1/C=C1\C(=O)Nc2ccc(S(N)(=O)=O)cc21` are 920 nM, more than 100000 nM, 460 nM and 5980 nM.
`COc1ccccc1-c1ccc2c(c1)NC(=O)/C2=C\c1[nH]cc(CCC(=O)O)c1C`: the half-maximal inhibitory concentration (IC50) in experiment [1] is 1470 nM; in experiment [2], more than 100000 nM; in experiment [3], 2130 nM; in experiment [4], 1420 nM.
The compound `Cc1c[nH]c(/C=C2\C(=O)Nc3cccc(C)c32)c1CCC(=O)O` displayed a concentration for half-maximal inhibition (IC50) in experiment [2] of more than 100000 nM.
As for `COc1cccc(-c2ccc3c(c2)NC(=O)/C3=C\c2[nH]cc(CCC(=O)O)c2C)c1`, the IC50 in experiment [1] was 90 nM; in experiment [2], more than 100000 nM; in experiment [3] it was 360 nM; in experiment [4], 170 nM.
For `Cc1c[nH]c(/C=C2\C(=O)Nc3ccc(Br)cc32)c1CCC(=O)O`, the 50% inhibitory concentration (IC50) in experiment [2] was more than 100000 nM.
On to `COc1ccc(-c2ccc3c(c2)NC(=O)/C3=C\c2[nH]cc(CCC(=O)O)c2C)cc1`, for which the IC50 in experiment [1] was 450 nM; in experiment [2] it was more than 100000 nM; in experiment [3], 1540 nM; in experiment [4], 3080 nM.
For `Cc1[nH]c(/C=C2\C(=O)Nc3ccc(C(=O)O)cc32)c(C)c1CCC(=O)O`, in that order: 70 nM, more than 100000 nM, 280 nM and 1210 nM.
For `Cc1[nH]c(/C=C2\C(=O)Nc3cc(-c4ccccc4)ccc32)c(C)c1CCC(=O)O`, in that order: 140 nM, more than 100000 nM, 2290 nM and 10 nM.
Regarding `COc1ccc2c(c1)NC(=O)/C2=C\c1[nH]cc(CCC(=O)O)c1C`, the IC50 is 1350 nM in experiment [1], more than 100000 nM in experiment [2], 3890 nM in experiment [3] and 140 nM in experiment [4].
For `COc1ccc(-c2ccc3c(c2)NC(=O)/C3=C\c2[nH]c(C)c(CCC(=O)O)c2C)cc1`, in that order: 520 nM, more than 100000 nM, 5760 nM and 1000 nM.
Consider `Cc1[nH]c(/C=C2\C(=O)Nc3ccc(S(N)(=O)=O)cc32)c(C)c1CCC(=O)O`, for which the IC50 in experiment [1] was found to be 1260 nM; in experiment [3], 280 nM; in experiment [4], 1530 nM.
As to `Cc1c(CCC(=O)O)c[nH]c1/C=C1\C(=O)Nc2ccccc21`, the concentration for half-maximal inhibition (IC50) in experiment [1] was 2140 nM; in experiment [2], more than 100000 nM; in experiment [3] it was 3680 nM; in experiment [4] it was 140 nM.
For `Cc1c(CCC(=O)O)c[nH]c1/C=C1\C(=O)Nc2cc(-c3ccccc3)ccc21`, in that order: 300 nM, more than 100000 nM, 1050 nM and 160 nM.
For `COc1ccc2c(c1)NC(=O)/C2=C\c1[nH]c(C)c(CCC(=O)O)c1C`, in that order: 8290 nM, more than 100000 nM, 5400 nM and 550 nM.
Take `Cc1[nH]c(/C=C2\C(=O)Nc3ccc(Br)cc32)c(C)c1CCC(=O)O`: the IC50 was 1730 nM in experiment [1], more than 100000 nM in experiment [2], 2050 nM in experiment [3] and 60 nM in experiment [4].
Turning to `COc1cccc(-c2ccc3c(c2)NC(=O)/C3=C\c2[nH]c(C)c(CCC(=O)O)c2C)c1`, the IC50 is 300 nM in experiment [1], more than 100000 nM in experiment [2], 1400 nM in experiment [3] and 100 nM in experiment [4].
As to `Cc1c(CCC(=O)O)c[nH]c1/C=C1\C(=O)Nc2ccc(C(=O)O)cc21`, the IC50 was 240 nM in experiment [1], more than 100000 nM in experiment [2], 770 nM in experiment [3] and 4190 nM in experiment [4].
In the case of `CCOc1cccc(-c2ccc3c(c2)NC(=O)/C3=C\c2[nH]cc(C)c2CCC(=O)O)c1`, the IC50 in experiment [2] was more than 100000 nM; in experiment [3], 4500 nM.
Consider `COc1cccc(-c2ccc3c(c2)NC(=O)/C3=C\c2[nH]cc(C)c2CCC(=O)O)c1`, for which the half-maximal inhibitory concentration (IC50) in experiment [2] is more than 100000 nM; in experiment [3], 1200 nM; in experiment [4], 450 nM.
In the case of `Cc1c[nH]c(/C=C2\C(=O)Nc3ccccc32)c1CCC(=O)O`, the IC50 in experiment [1] was 20 nM; in experiment [2], more than 100000 nM; in experiment [3] it was 30 nM; in experiment [4] it was 510 nM.
In experiment [4], `Cc1[nH]c(/C=C2\C(=O)Nc3ccccc32)c(C)c1CCC(=O)O` [ORANTINIB] registered an IC50 of 60 nM.
